Reference: patent US6906035B2, “Antimicrobial cationic peptides” (priority 1995, dated 2005)
Values joined by “and” are separate entries in the source; they are usually repeats but may differ in a detail not shown here. Equal entries are not always repeated. Where two headings read alike, the source gives them in different places. Ends that are not written are not given here.

What was measured:
LPS = assay: Dansyl polymyxin displacement assay; format: binding; conditions: Dansyl polymyxin displacement from LPS
Source text: In addition, the peptides of SEQ ID NO: 5-8 also bound effectively to LPS with high affinity based on Dansyl polymyxin displacement assays (Table 5).

[1] = α helical content by CD spectra; format: physicochemical
Description: α Helical Content of Cationic Peptides by CD Spectra
The α helical content of the peptides were measured in buffer, liposomes and 20% Hexafluoroisopropanol (HFPIP). The liposomes constituted of POPC alone or POPC and POPC and 30% POPG (Table 7).

E. coli ML 35 = assay: Inner membrane permeabilization (ONPG hydrolysis by β-galactosidase); format: cell-based; conditions: E. coli ML 35, ONPG
Description: Inner membrane permeability was determined by measurement in E. coli ML 35 of β-galactosidase activity using ONPG as a substrate. Normally ONPG cannot pass across the cytoplasmic membrane to permit hydrolysis by the cytoplasmic enzyme β-galactosidase. However, cationic peptides, by permeabilizing the inner membrane, unmasks this enzyme leading to color development as ONP is released. […] Addition of citrate increased the lag time before the peptides were able to permeabilize the membranes. When the experiments were executed in cation adjusted media (CAMHB), the lag time was increased up to 30 minutes.

X. maltophila = assay: organism not typed; conditions: agent alone
Description: (§1) FICs are performed by checkerboard titrations of peptides in one dimension of a microtiter plate, and of antibiotics in the other dimension, for example. The FIC is calculated by looking at the impact of one antibiotic on the MIC of the other and vice versa. […] Preferably, an FIC of less than 0.5 is obtained for synergism. As used herein, FIC can be determined as follows: [formula]
(§2) Synergism is identified as an FIC of about ≦0.5.

S. epidermis = conditions: S. epidermis
Description: as §1
(§3) Briefly, cells were grown overnight at 37° C. in LB-S (Luria broth without any salt supplement) and diluted one in 10,000 in the same medium to give concentrations of about 10^4 to 10^5 CFU/ml. The broth dilutions were set up in a 96 well microtiter plate by putting 200 μl of LB-S containing the initial concentration of antibiotic or compound in column 1 and 100 μl of the same medium in columns 2-12. The compounds were diluted by taking 100 μl of broth from column 1 and mixing it with column 2, resulting in a one in two dilution. This was continued to column 10. Finally, 10 μl of bacteria were pipetted into columns 1-11, and the plates incubated overnight at 37° C. The next day the plates were scored for growth in the wells, and the MIC determined.

P. aeruginosa [2] = tested on: P. aeruginosa
Description: as §1, §3

X maltophilia = assay: MIC, broth dilution in LB-S; format: cell-based; conditions: additional MICs
Description: (§4) The biological activity of the peptides can be determined by standard methods known to those of skill in the art, such as “minimal inhibitory concentration (MIC)” assay described in the present examples, whereby the lowest concentration at which no change in OD is observed for a given period of time is recorded as MIC. Alternatively, “fractional inhibitory concentration (FIC)” is also useful for determination of synergy between the peptides of the invention, or the peptides in combination with known antibiotics. FICs are performed by checkerboard titrations of peptides in one dimension of a microtiter plate, and of antibiotics in the other dimension, for example. The FIC is calculated by looking at the impact of one antibiotic on the MIC of the other and vice versa. […] Preferably, an FIC of less than 0.5 is obtained for synergism. As used herein, FIC can be determined as follows: [formula]
as §3

K. pneumoniae = assay: MIC, broth dilution in LB-S; format: cell-based; conditions: additional MICs
Description: as §4, §3

E. coli = assay: MIC, broth dilution in LB-S; format: cell-based
Description: as §4, §3

S. aureus = assay: MIC, broth dilution in LB-S; format: cell-based
Description: as §4, §3

E. cloacae [3] = assay: MIC, broth dilution in LB-S; format: cell-based; conditions: additional MICs
Description: as §4, §3

E. faecalis = assay: MIC, broth dilution in LB-S; format: cell-based; conditions: Table 1b, separate set of experiments
Description: as §4, §3

A. calcoaceticus [4] = assay: MIC, broth dilution in LB-S; format: cell-based; conditions: additional MICs
Description: as §4, §3

P. aeruginosa [5] = assay: microbe, parasite or virus in culture; conditions: agent alone
Description: as §1, §2

Candida albicans = assay: MIC, broth dilution in LB-S; format: cell-based
Description: as §1, §3

Red Blood Cells = assay: Red blood cell lysis; format: cell-based; conditions: concentration lysing Red Blood Cells
E. cloacae [6] = conditions: agent alone
Description: as §1, §2

A. calcoaceticus [7] = conditions: agent alone
Description: as §1, §2

For KWKSFIKKLTSAAKKVVTTAKPLISS [MBI 26], the 1max (LPS) was 38%, the “% α helicity” value ([1]; 20% HFIP) was 70% and the “% α helicity” value ([1]; Buffer) was 0%. The “% α helicity” value ([1]; POPC Liposomes) was 0%, the “% α helicity” value ([1]; POPC/POPG Liposomes (30% POPG)) was 8% and the “Lag Time” value (E. coli ML 35) was 210 s. For the same sequence, the “Rate of Hydrolysis” value (E. coli ML 35) was 0.081 ΔAU min^−1, the MIC (X. maltophila; X. maltophila isolate 34, strain ATCC 13637) was 64 µg/mL and the MIC (X. maltophila; X. maltophila isolate 35, strain 6) was 64 µg/mL and 128 µg/mL. For the same sequence, the MIC (X. maltophila; X. maltophila isolate 40, strain R1302-1) was 128 µg/mL and 64 µg/mL, the MIC (X. maltophila; X. maltophila isolate 41, strain R4230) was 64 µg/mL and the MIC (S. epidermis; Table 1a) was “≧64”. The MIC (S. epidermis; Table 1b, separate set of experiments) was 32 µg/mL, the MIC (P. aeruginosa [2]; P. aeruginasa (H 103), additional MICs) was 4 µg/mL and the MIC (P. aeruginosa [2]; P. aeruginosa (H187), Table 1a) was 11 µg/mL. The MIC (P. aeruginosa [2]; P. aeruginosa (H187), Table 1b, separate set of experiments) was 32 µg/mL, the “MIC P. aeruginosa (H187)” value (P. aeruginosa [2]; P. aeruginosa (H187), Table 6) was 4.5 µg/mL and the MIC (X maltophilia) was 2 µg/mL. It also gave an MIC (K. pneumoniae) of 8 µg/mL, an MIC (E. coli; E. coli 0111:B4, additional MICs) of 2 µg/mL and an MIC (E. coli; E. coli (UB1005), Table 1a) of 3 µg/mL. For the same sequence, the MIC (E. coli; E. coli (UB1005), Table 1b, separate set of experiments) was 4 µg/mL, the “MIC E. coli (UB 1005)” value (E. coli; E. coli (UB 1005), Table 6) was 1.1 µg/mL and the MIC (E. coli; E. coli. Bort, additional MICs) was 2 µg/mL. The MIC (S. aureus; S. aureus (K 147), Table 1a) was “≧64”, the MIC (S. aureus; S. aureus (K147), Table 1b, separate set of experiments) was “≧64” and the MIC (S. aureus; S. aureus (SAP0017), Table 1a) was “≧64”. For the same sequence, the MIC (S. aureus; S. aureus (SAP0017), Table 1b, separate set of experiments) was “≧64”, the MIC (E. cloacae [3]) was 2 µg/mL and the MIC (E. faecalis) was “≧64”. The MIC (A. calcoaceticus [4]) was 2 µg/mL, the MIC (P. aeruginosa [5]; P. aeruginosa isolate 23, strain ATCC 27853) was 64 µg/mL and 128 µg/mL and the MIC (P. aeruginosa [5]; P. aeruginosa isolate 24, strain 34) was 64 µg/mL and 128 µg/mL. For the same sequence, the MIC (P. aeruginosa [5]; P. aeruginosa isolate 25, strain 923-1) was 64 µg/mL and 128 µg/mL, the MIC (P. aeruginosa [5]; P. aeruginosa isolate 26, strain 3101) was 64 µg/mL and 128 µg/mL and the MIC (Candida albicans; Candida albicans (CAN105), Table 1b, separate set of experiments) was “≧64”. For the same sequence, the MIC (Candida albicans; Candida alibicans (CAN105), Table 1a) was “≧64”, the “RBC Lysis” value (Red Blood Cells) was >55 µg/mL and the MIC (E. cloacae [6]; E. cloacae isolate 14, strain 938-2) was 64 µg/mL. For the same sequence, the MIC (E. cloacae [6]; E. cloacae isolate 15, strain B5546) was 64 µg/mL and 32 µg/mL, the MIC (E. cloacae [6]; E. cloacae isolate 16, strain R4148) was 64 µg/mL and 32 µg/mL and the MIC (E. cloacae [6]; E. cloacae isolate 17, strain R4148-2) was 64 µg/mL and 32 µg/mL. For the same sequence, the MIC (E. cloacae [6]; E. cloacae isolate 18, strain 3077) was 64 µg/mL, the MIC (E. cloacae [6]; E. cloacae isolate 19, strain 3356) was 128 µg/mL and 64 µg/mL and the MIC (A. calcoaceticus [7]; A. calcoaceticus isolate 1, strain ATCC 23055) was 128 µg/mL and 64 µg/mL. For the same sequence, the MIC (A. calcoaceticus [7]; A. calcoaceticus isolate 2, strain 23) was 32 µg/mL and 64 µg/mL, the MIC (A. calcoaceticus [7]; A. calcoaceticus isolate 3, strain 27) was 64 µg/mL and 32 µg/mL and the MIC (A. calcoaceticus [7]; A. calcoaceticus isolate 4, strain 28) was 16 µg/mL and 32 µg/mL. For the same sequence, the MIC (A. calcoaceticus [7]; A. calcoaceticus isolate 5, strain 8220) was 64 µg/mL and 32 µg/mL, the MIC (A. calcoaceticus [7]; A. calcoaceticus isolate 6, strain 8221) was 64 µg/mL and the MIC (A. calcoaceticus [7]; A. calcoaceticus isolate 7, strain 8222) was 64 µg/mL. For the same sequence, the MIC (A. calcoaceticus [7]; A. calcoaceticus isolate 8, strain 8223) was 64 µg/mL and 32 µg/mL, the MIC (A. calcoaceticus [7]; A. calcoaceticus isolate 9, strain 8224) was 64 µg/mL and the MIC (A. calcoaceticus [7]; A. calcoaceticus isolate 10, strain 8225) was 64 µg/mL. For the same sequence, the MIC (A. calcoaceticus [7]; A. calcoaceticus isolate 11, strain 8226) was 64 µg/mL.
